Test results as given in publication PMC11091968, “Degradation of the α-Carboxyl Terminus 11 Peptide: In Vivo and Ex Vivo Impacts of Time, Temperature, Inhibitors, and Gender in Rat” (ACS Pharmacology & Translational Science, 2024).
Counter-ions that a name gives are not always drawn. Like-named read-outs stand apart in the source and are kept apart here. Values belong to the molecule of their own block, whether it stands above or below them. Residues, ends and D or L forms follow the SMILES beside them. *: point of attachment. Biotin = O=C1N[C@H]2[C@H](CS[C@H]2CCCCC(=O)*)N1; Ahx = NCCCCCC(=O)O

Assays:
papain = settings: against papain; 8 (Table S4); cited from earlier work
Description: (§1) page 5: S-5 Table S4. Protease and phosphatase inhibitor cocktail and their major targets. Abbreviations: AEBSF: 4-(2-aminoethyl) benzenesulfonyl fluoride hydrochloride; ATPase: adenosine 5′ -triphosphatase; E-64: L-trans-3-carboxyoxiran-2-carbonyl-L-leucylagmatine; IC 50: half maximal inhibitory concentration;; Ki: inhibitory constant; MW: molecular weight; N/A: not applicable; PP1 or 2A: protein ph osphatase 1 or 2A; PTP: protein tyrosine phosphatase; K293: human embryonic kidney cell line; HS596: human HS683 glioma cell line; SKN695: human SK-N-SH neuroblastoma cell line. Ingredient MW (Da ...

SKN695 cells = settings: tested on SKN695 cells (human SK-N-SH neuroblastoma cell line); ref 1-3 (Table S4); cited from earlier work
Description: as §1

K293 cells = settings: tested on K293 cells (human embryonic kidney cell line); ref 1-3 (Table S4); cited from earlier work
Description: as §1

HS596 cells = settings: tested on HS596 cells (human HS683 glioma cell line); ref 1-3 (Table S4); cited from earlier work
Description: as §1

[1] = system: serine/threonine protein phosphatases 2A; settings: against serine/threonine protein phosphatases 2A; 14 (Table S4); cited from earlier work
Description: as §1

[2] = system: serine/threonine protein phosphatases; settings: against serine/threonine protein phosphatases; 14 (Table S4); cited from earlier work
Description: as §1

phosphatidylserine = settings: cited from earlier work
Description: as §1

[3] = molecular target: lysosomal and prostatic acid phosphatases; settings: against lysosomal and prostatic acid phosphatases; 21 (Table S4); cited from earlier work
Description: as §1

[4] = In vivo "pharmacokinetic" analysis of αCT11 in plasma after tail vein injection; set-up: species or system rat; settings: tail vein injection to 100 μM in blood, LC-MS/MS, n = 3
Experimental: A second group of rats (only male) was not subjected to MI but injected (via the tail vein) with the same concentration of αCT11 as described in the Rat Model of I/R MI and Tail Vein Injection of αCT11 section. After injection, about 250–350 μL of blood was withdrawn at 1, 5, and 10 min following administration and transferred into an anticlotting tube containing heparin. Plasma was then separated at 4 °C and 2000g for 10 min using an Eppendorf Centrifuge 5810R (Eppendorf North America, Framingham, MA) and stored at −80 °C or used immediately for liquid chromatography tandem mass spectrometry (LC/MS-MS; described in the Prepreparation and Measurements of Plasma Containing αCT11 for LC/MS-MS Analysis section).
Plasma samples collected from either in vivo (see the In Vivo “Pharmacokinetic” Analysis of αCT11 section) or ex vivo (see the Ex Vivo Degradation Analysis of αCT11 in Rat Plasma section) groups were processed in the same way outlined here, according to the modified protocol from a previous publication.[36] Briefly, 100 μL of plasma was added to a 0.5 mL low-adhesion microcentrifuge tube containing 4% FA in 200 μL of ACN [see Table S1]. […] The samples were either stored at 4 °C up to 4 weeks (see the Results section) or analyzed immediately using a Waters H-Class UPLC mass spectrometer (Milford, MA) and its accompanying MassLynx software, version 4.2 (Milford, MA). […]

[5] = Storage stability at 4 °C of plasma samples prepared for mass spectrum analysis; format: physicochemical; settings: mass spectrum samples from male rat plasma
Experimental: Plasma samples collected from either in vivo (see the In Vivo “Pharmacokinetic” Analysis of αCT11 section) or ex vivo (see the Ex Vivo Degradation Analysis of αCT11 in Rat Plasma section) groups were processed in the same way outlined here, according to the modified protocol from a previous publication.[36] Briefly, 100 μL of plasma was added to a 0.5 mL low-adhesion microcentrifuge tube containing 4% FA in 200 μL of ACN [see Table S1]. The tubes were slightly (∼1 min) vortexed and centrifuged for 5 min at 11,332g using an Eppendorf Centrifuge 5424R (Eppendorf North America, Framingham, MA) to recover the supernatants. 100 μL of the supernatant was then combined with 100 μL of deionized H2O in 2 mL amber autovials with a low-volume insert and capped. The samples were either stored at 4 °C up to 4 weeks (see the Results section) or analyzed immediately using a Waters H-Class UPLC mass spectrometer (Milford, MA) and its accompanying MassLynx software, version 4.2 (Milford, MA). […]
Following the initial measurements at Week 0 (i.e., Day 0 when fresh plasma was isolated and αCT11 concentrations were measured at 0 min at 22 °C and 37 °C), the same samples used in each conduction were stored at 4 °C for 1 week (A), 4 weeks (B), or 6 weeks (C) before being used again to measure the peptide concentrations. […]

[6] = Ex vivo degradation of αCT11 in isolated rat plasma; format: in vitro ADME; settings: for remaining at 5 min, 100 μM: 100 μM αCT11, 5 min
Description: A third group of rats (including both males and females) was not subjected to either MI or the tail vein injection of αCT11. Instead, after injection of heparin (300 U/mL blood, the total units of heparin were estimated from body weight of each rat), as much blood as possible was collected under deep anesthesia via a cardiac puncture with a 21G needle connected to a syringe containing heparin. Blood was then transferred into an anticlotting tube on ice, followed by plasma separation as described above. All plasma collected from either males or females were randomly sorted into 4 groups (G) per gender [G1: 22 °C; G2: 37 °C, G3: 22 °C + inhibitor cocktail and G4: 37 °C + inhibitor cocktail] and incubated at 22 °C [in an Eppendorf thermomixer (Eppendorf North America, Framingham, MA)] or at 37 °C [in a digital dry bath (Benchmark, Sayreville, NJ)] with or without additions of αCT11 (at a final concentration of 100 μM in each tube) in the presence or absence of a PTase/PPTase inhibitor cocktail (at a final concentration of 1.5× of the original concentration). It took less than ∼30 s for the 22 °C groups to reach 22 °C and ∼75 s for the 37 °C groups to reach 37 °C. […], 100 μL of plasma was taken in triplicate from the tube of each animal at 0, 5, 30, and 60 min following additions of αCT11 and the cocktail inhibitors (if applied). The collected samples were then transferred to new tubes for further preparation prior to LC/MS-MS analysis.
Plasma samples collected from either in vivo (see the In Vivo “Pharmacokinetic” Analysis of αCT11 section) or ex vivo (see the Ex Vivo Degradation Analysis of αCT11 in Rat Plasma section) groups were processed in the same way outlined here, according to the modified protocol from a previous publication.[36] Briefly, 100 μL of plasma was added to a 0.5 mL low-adhesion microcentrifuge tube containing 4% FA in 200 μL of ACN [see Table S1]. The tubes were slightly (∼1 min) vortexed and centrifuged for 5 min at 11,332g using an Eppendorf Centrifuge 5424R (Eppendorf North America, Framingham, MA) to recover the supernatants. 100 μL of the supernatant was then combined with 100 μL of deionized H2O in 2 mL amber autovials with a low-volume insert and capped. The samples were either stored at 4 °C up to 4 weeks (see the Results section) or analyzed immediately using a Waters H-Class UPLC mass spectrometer (Milford, MA) and its accompanying MassLynx software, version 4.2 (Milford, MA).
For measurement, the sample extracts were first separated chromatographically with an HSS T3 column and matching VanGurd column at 40 °C. A 4 μL sample was injected onto the column using a refrigerated autosampler at 5 °C. Mobile phase A was comprised of 1% FA in H2O and mobile phase B was comprised of 1% FA in ACN (Table S1). The mobile phase was delivered to the column at a flow rate of 0.4 mL/min. Tuning was performed on each analyte by direct infusion of a standard solution (0.1 ng/μL) at a rate of 10 μL/min. The parent and production transitions for αCT11 peptide are shown in Table S2, while the mass spectrometry parameters used for detecting αCT11 are listed in Table S3.
Data were collected at 0 min in triplicate from each group using LC/MS-MS and were first calibrated as 100%; all other data from the same group were then normalized as % change over the data at 0 min. A Student’s t-test was used for comparison of 2 groups, while 1- or 2-way ANOVA followed by Tukey’s test was used for comparisons of ≥3 groups with 1 or 2 factors. All data were expressed as mean ± standard error (SE), if not otherwise specified, with p < 0.05 considered statistically significant. Data were analyzed and plotted using GraphPad Prism 9.3.1 (San Diego, CA) and Microsoft 2019 MS Excel (Redmond, WA).

plasmin = settings: against plasmin; 10 (Table S4); cited from earlier work
Description: as §1

trypsin = settings: against trypsin; 10 (Table S4); cited from earlier work
Description: as §1

Aspartic proteases = settings: enzyme not given; 11 (Table S4); cited from earlier work
Description: as §1

human cathepsin D = system: human cathepsin D; set-up: method as in earlier work; settings: against human cathepsin D; 11 (Table S4); cited from earlier work
Description: as §1, with “line.” for “line. Ingredient MW (Da ...”

Molecule: CC(C)C[C@H](NC(=O)[C@H]1O[C@@H]1C(=O)O)C(=O)NCCCCN=C(N)N (relative stereo) [E-64, L-trans-3-carboxyoxiran-2-carbonyl-L-leucylagmatine]
Ki (papain): 0.009 µM

Molecule: NCCc1ccc(S(=O)(=O)F)cc1 [AEBSF, 4-(2-aminoethyl) benzenesulfonyl fluoride hydrochloride]
IC50 (SKN695 cells): 300 µM
IC50 (K293 cells): 1000 µM
IC50 (HS596 cells): 300 µM

Molecule: C[C@@]12C(=O)OC(=O)[C@]1(C)[C@H]1CC[C@@H]2O1 [Cantharidin]
IC50 [1]: 0.04 µM
IC50 [2]: 0.47 µM

Molecule: [Na+].[Na+].[Na+].[O]=[V]([O-])([O-])[O-] [Sodium orthovanadate]
IC50 (phosphatidylserine): 100 µM

Molecule: O=C([O-])C(O)C(O)C(=O)[O-].[Na+].[Na+] (centres unmarked) [Sodium tartrate]
Ki [3]: 1 µM

reduction of the initial αCT11 concentration in plasma ([4]; male rats without MI, about 5 min postinjection): ~53%
αCT11 in blood plasma 10 min after tail vein injection ([4]; male rats, 10 min postinjection): almost undetectable
storage time at 4 °C without significant degradation of αCT11 [5]: up to 4 weeks
remaining at 5 min, 100 μM ([6]; isolated heparinised female rat plasma, 22 °C, with 1.5× PTase/PPTase inhibitor cocktail, LC-MS/MS, mean ± SE, n = 3 rats, read-out: percentage of αCT11 (normalized to 0 min)): 80.9 ± 3.7%
remaining at 1 h, 100 μM ([6]; isolated heparinised female rat plasma, 22 °C, with 1.5× PTase/PPTase inhibitor cocktail, 100 μM αCT11, 60 min, LC-MS/MS, mean ± SE, n = 3 rats, read-out: percentage of αCT11 (normalized to 0 min)): 13.2 ± 3.3%
remaining at 5 min, 100 μM ([6]; isolated heparinised female rat plasma, 37 °C, no inhibitors, LC-MS/MS, mean ± SE, n = 3 rats (9 replicates), read-out: αCT11 level, % of starting concentration (0 min)): 51.4 ± 3.5%
αCT11 level, % of starting concentration (0 min) ([6]; isolated heparinised female rat plasma, 37 °C, no inhibitors, 100 μM αCT11, 30 min, LC-MS/MS, mean ± SE, n = 3 rats (9 replicates)): 1.6 ± 0.6%
remaining at 1 h, 100 μM ([6]; isolated heparinised female rat plasma, 37 °C, no inhibitors, 100 μM αCT11, 60 min, LC-MS/MS, mean ± SE, n = 3 rats (9 replicates), read-out: αCT11 level, % of starting concentration (0 min)): 0.1 ± 0.03%
remaining at 0.5 h, 100 μM ([6]; isolated heparinised male rat plasma, 22 °C, with 1.5× PTase/PPTase inhibitor cocktail, 100 μM αCT11, 30 min, LC-MS/MS, mean ± SE, n = 3 rats, read-out: percentage of αCT11 (normalized to 0 min)): 41.6 ± 3.3%
remaining at 1 h, 100 μM ([6]; isolated heparinised male rat plasma, 22 °C, with 1.5× PTase/PPTase inhibitor cocktail, 100 μM αCT11, 60 min, LC-MS/MS, mean ± SE, n = 3 rats, read-out: percentage of αCT11 (normalized to 0 min)): 19.1 ± 2.7%
remaining at 5 min, 100 μM ([6]; isolated heparinised male rat plasma, 37 °C, no inhibitors, LC-MS/MS, mean ± SE, n = 3 rats (9 replicates), read-out: αCT11 level, % of starting concentration (0 min)): 61.9 ± 5.7%
remaining at 0.5 h, 100 μM ([6]; isolated heparinised male rat plasma, 37 °C, no inhibitors, 100 μM αCT11, 30 min, LC-MS/MS, mean ± SE, n = 3 rats (9 replicates), read-out: αCT11 level, % of starting concentration (0 min)): 1.5 ± 1.2%
remaining at 1 h, 100 μM ([6]; isolated heparinised male rat plasma, 37 °C, no inhibitors, 100 μM αCT11, 60 min, LC-MS/MS, mean ± SE, n = 3 rats (9 replicates), read-out: αCT11 level, % of starting concentration (0 min)): 0.04 ± 0.06%
αCT11 in isolated plasma by 30 min ([6]; isolated rat plasma, 22 and 37 °C, no inhibitors, 30 min, LC-MS/MS): nearly undetectable
αCT11 concentrations, male vs female rat plasma ([6]; isolated rat plasma, 22 or 37 °C, absence and presence of 1.5× inhibitors, any time point (0, 5, 30, 60 min), LC-MS/MS, n = 3): no significant differences
αCT11 in ex vivo plasma at 60 min ([6]; isolated rat plasma, males and females, 22 °C, no inhibitors, 100 μM αCT11, 60 min, LC-MS/MS): almost undetectable
time for αCT11 concentration to decrease to 50% in ex vivo plasma ([6]; isolated rat plasma, males and females, 22 °C, no inhibitors, 100 μM αCT11, LC-MS/MS): about 10 min
Molecule: CC[C@H](C)[C@H](NC(=O)[C@H](CCC(=O)O)NC(=O)[C@H](CC(C)C)NC(=O)[C@H](CC(=O)O)NC(=O)[C@H](CC(=O)O)NC(=O)[C@@H]1CCCN1C(=O)[C@H](CCCNC(=N)N)NC(=O)[C@@H]1CCCN1C(=O)[C@H](CCCNC(=N)N)NC(=O)CCCCCNC(=O)CCCC[C@@H]1SC[C@@H]2NC(=O)N[C@@H]21)C(=O)O [αCT11] ({Biotin-Ahx}-RPRPDDLEI-OH)

Molecule: Leupeptin
Ki (plasmin): 0.0034 µM
Ki (trypsin): 0.0035 µM

Molecule: Pepstatin A
Ki (Aspartic proteases): 0.01 nM
IC50 (human cathepsin D): 0.021 µM
